A short description of series [1]: Study 4: pharmacokinetics of plasma kisspeptin after i.p. injection (radioimmunoassay). Format: in vivo, mouse. The settings on record: male mice. The method, then: Male mice received a single i.p. injection of 1 nmol KP-10 or 1 nmol KP-54. 100 μl of blood was collected from the lateral tail vein from groups of mice (n = 4) for each time point (0, 1 min, 2 min, 5 min, 10 min, 30 min, 60 min and 120 min). Terminal bleeds were collected from the vena cava. Blood was mixed with 5 μl EDTA, centrifuged at 10,000 x g for 10 min at 4°C to obtain the plasma fraction, and stored at -20°C until assayed. Kisspeptin concentrations were measured using an established in house competitive radioimmunoassay (RIA, [5]. Briefly, this RIA uses a sheep polyclonal antibody (GQ2), raised against human KP-54, which cross-reacts with human KP-54, KP-14 and KP-10.
3–5 month old wild-type (129S6/SvEv) male mice were used in this study. The mice were housed in open cages on a 12 hour light cycle (lights on at 0700 h) at a controlled temperature (22°C), and were provided with food and water ad libitum. All experiments were performed under the authority of a United Kingdom Home Office Project License and were approved by a Cambridge Animal Ethics Committee.

The conditions of series [2]: from the product data sheets; ref product data sheets (manufacturer); cited from earlier work. The protocol: KP-10 [human Metastin (45–54) amide, M-2816] was purchased from Sigma-Aldrich. KP-10 consists of the C-terminal 10-amino acids of KP-54. Human KP-54 was synthesized by the Advanced Biotechnology Centre, Imperial College, London, UK. BSA-FITC was purchased from Sigma (A9771). From the product data sheets, the solubility of KP-10 and KP-54 in water is 1mg/ml. We prepared stock solutions in sterile PBS at 100 μM, which is almost ten times lower than the solubility limit set by the manufacturer. The 100 μM stock solution was diluted in sterile PBS and 100 μl of the working solution was injected to ...

The conditions of series [3]: men / humans; ref [5], [30] (KP-10), ref [5] (KP-54); cited from earlier work. From the text:
It should be noted, however that the RIA used to measure KP-54 may also detect shorter breakdown products of this protein that might be biologically inert. It is likely that the lack of GnRH neuronal activation and sustained LH release by KP-10 is mainly due to its instability. It is noteworthy that we failed ...

For a further series, the system named is LH secretion. The series can be described thus: S1 Fig: plasma LH after i.p. injection of penetratin-extended Kp10. Format: in vivo, mouse. The settings on record: single 100 μl i.p. injection, blood at 10 min and 2 hrs, n = 2 per treatment. The protocol:
Supplementary file pone.0176821.s001.tif: S1 Fig Kisspeptin-penetratin treatment. This experiment aimed at facilitating Kp10 to cross the blood-brain-barrier by adding a penetratin extension to the […] end of Kp10, thereby putatively provided with higher permeability. Two penetratin variants were tested: the pen(ala2) residue has a lower protein transduction domain activity than pen-Kp10. […] Each animal received a single 100 μl i.p. injection of either PBS, Kp10, Kp54, Pen-Kp10 or Pen(ala2)-Kp10. Blood samples were collected at 10 min (from tail vein) and 2 hrs (from vena cava upon sacrifice) time points after administration. […] (TIF) Click here for additional data file.

Converted amounts (≈) assume the structure as drawn. Ends that are not written are not given here.

Turning to `CC(C)C[C@H](NC(=O)CNC(=O)[C@H](Cc1ccccc1)NC(=O)[C@H](CO)NC(=O)[C@H](CC(N)=O)NC(=O)[C@H](Cc1c[nH]c2ccccc12)NC(=O)[C@H](CC(N)=O)NC(=O)[C@@H](N)Cc1ccc(O)cc1)C(=O)N[C@@H](CCCNC(=N)N)C(=O)N[C@@H](Cc1ccccc1)C(N)=O` [KP-10, human Metastin (45–54) amide], the “peak (maximum) plasma kisspeptin level” value in series [1] (1 nmol i.p., RIA (GQ2 antibody), mean ± SEM, n = 4 per time point) is 248 ± 9 pmol/L. For the same molecule, the “plasma kisspeptin level by 10 min post-injection” value in series [1] (1 nmol i.p., RIA, n = 4) is “undetectable”. Moreover, in series [1] (1 nmol i.p., RIA, n = 4 per time point), the “time of peak plasma kisspeptin level post-injection” value stood at 2 min. Besides, in series [1] (1 nmol i.p., estimated from RIA plasma levels, RIA recognises all forms of Kp, may include breakdown products), the plasma half-life result is “about 4 min”. Further, the “fraction of the injected peptide entering the bloodstream after intraperitoneal injection” value in series [1] (1 nmol i.p., assuming a total blood volume of approximately 5 ml) is “around 0.13%”. The “peak level in the bloodstream, times lower than that of KP-54” value in series [1] (equimolar 1 nmole i.p., 250 pmol/L vs 12000 pmol/L) was approximately 50 times. The solubility in water in series [2] is 1000 µg/mL (≈ 768 µM). Besides, the “half-life in the blood stream in humans” value in series [3] is 3.8 min.
As for “NRRMAWAKYYNWNSFGLRF-NH2 [Pen(ala2)-Kp10]”, the “effect of penetratin extension on Kp10-induced LH secretion” value in the series with LH secretion is “does not improve the Kp10-induced LH secretion”.
On the same count and under the same terms, in the case of NRRMKWKKYYNWNSFGLRF-NH2 [Pen-Kp10] it was “does not improve the Kp10-induced LH secretion”.

The record behind these values is paper PMC5413024, “Mechanistic insights into the more potent effect of KP-54 compared to KP-10 in vivo” (PLoS ONE, 2017).
